Results: patent US20080287490A1, “Bis-pyridino containing compounds for the use in the treatment of CNS pathologies” (UNIVERSITY OF KENTUCKY RESEARCH FOUNDATION, priority 2005, published 2008)
Read-outs that look alike come from different tables or passages of the source.

Experiments:
[1] = test system: nAChR subtypes mediating nicotine-evoked [^3H]-dopamine overflow
Protocol: [^3H]-Dopamine overflow from superfused striatal slices. […] Striatal coronal slices (500 μm, 4-6 mg) were obtained and incubated for 30 minutes in Krebs' buffer (in mM: 118 NaCl, 4.7 KCl, 1.2 MgCl2, 1 NaH2PO4, 1.3 CaCl2, 11.1 glucose, 25 NaHCO3, 0.11 L-ascorbic acid and 0.004 disodium EDTA, pH 7.4, saturated with 95% O2/5% CO2) in a metabolic shaker at 34° C. Slices were incubated with 0.1 μM (final concentration) of [^3H]-dopamine during the latter 30 minutes of the 60-minute incubation period. Each slice was transferred to a glass superfusion chamber maintained at 34° C. and superfused (1 ml/min) with Krebs' buffer containing nomifensine (10 μM) and pargyline (10 μM) to inhibit [^3H]-dopamine reuptake after release into the extracellular space, ensuring that [^3H]-overflow primarily represented [^3H]-dopamine. Sample collection (5-minute; 5 mL) began after 60 minutes of superfusion. […] At the end of the experiment, each slice was solubilized, and the [^3H]-content of the tissue determined. Release during each minute was normalized for total tissue [^3H]-content. Analog-induced intrinsic activity and inhibitory activity were determined using slices from the same rat (repeated-measures design).
The amount of [^3H] in each sample was calculated by dividing the total [^3H] collected in each sample by the total in the tissue at the time of sample collection (defined as fractional release). […] Data were analyzed by weighted, least squares regression analysis of the sigmoidal concentration-effect curves to obtain EC50 and IC50 values.
Striatal slices (500 μm, 4-6 mg) were incubated for 30 minutes in Krebs' buffer (in mM: 118 NaCl, 4.7 KCl, 1.2 MgCl2, 1 NaH2PO4, 1.3 CaCl2, 11.1 glucose, 25 NaHCO3, 0.11 L-ascorbic acid and 0.004 disodium EDTA, pH 7.4, saturated with 95% O2/5% CO2) in a metabolic shaker at 34° C. Slices were incubated with 0.1 μM (final concentration) [^3H]DA during the latter 30 minutes of the 60-minute incubation period. Each slice was transferred to a glass superfusion chamber maintained at 34° C. and superfused (1 ml/min) with Krebs' buffer containing nomifensine (10 μM) and pargyline (10 μM) to inhibit [^3H]DA reuptake and metabolism, respectively, after release into the extracellular space, ensuring that [^3H]overflow primarily represents [^3H]DA. Sample collection (5-minute; 5 ml) began after 60 minutes of superfusion. […] Thus, the ability of these analogs to elicit intrinsic activity (evoke [^3H]DA overflow) was determined. At the end of the experiment, each slice was solubilized and [^3H]content of the tissue determined. Release during each minute was normalized for total [^3H]content of the slice. Analog-induced intrinsic activity and inhibitory activity were determined using slices from the same rat (repeated-measures design).
Fractional release was calculated by dividing the total tritium collected in each sample by the total tritium in the tissue at the time of sample collection. […] Typically, data were analyzed by weighted, least squares regression analysis of sigmoidal concentration-effect curves to obtain EC50 and IC50 values.

[2] = molecular target: nAChR mediating nicotine-evoked [^3H]DA release (α3β2* receptor subtype); assay type: cell-based, rat; conditions: read-out: IC50, S-(−)-nicotine-evoked [^3H]DA release
Protocol: Slices were rinsed with 15 mL of fresh buffer and incubated for an additional 30 minutes in fresh buffer containing 0.1 μM [^3H]DA (6 slices/3 ml). Subsequently, slices were rinsed with 15 ml of fresh buffer and transferred to a glass superfusion chamber.
Radioactivity in the superfusate and tissue samples was determined by liquid scintillation spectroscopy. […] Basal [^3H]outflow was calculated from the average of the tritium collected in the two five minute samples just before addition of the bis-alkyl pyridino analog. […] [^3H]Overflow was calculated by subtracting the [^3H]outflow during an equivalent period of prestimulation from the values in samples collected during and after drug exposure. Inasmuch as the radiolabelled compounds were not separated and identified, the tritium collected in superfusate is referred to as either [^3H]outflow or [^3H]overflow, rather than as [^3H]DA.

[3] = molecular target: T1, Rat Striatal Nicotinic Acetylcholine Receptors ([^3H]nicotine binding sites) (Rattus norvegicus, UniProt P09483+P12390); assay: biochemical; conditions: read-out: Ki, specific binding of [^3H]-nicotine
T1 construct: Striata from two rats were dissected, pooled, and homogenized; from tissue; host or cells: rat striatum membranes
Protocol: Striata from two rats were dissected, pooled, and homogenized with a Tekmar polytron in 10 volumes of ice-cold modified Krebs-HEPES buffer (20 mM HEPES, 118 mM NaCl, 4.8 mM KCl, 2.5 mM CaCl2, 1.2 mM MgSO4, adjusted to pH 7.5). The homogenates were incubated at 37° C. for five minutes and centrifuged at 15,000 g for 20 minutes. The pellet was resuspended in ten volumes of ice-cold MilliQ water, incubated for five minutes at 37° C., and centrifuged at 15,000 g for 20 minutes The second pellet was then resuspended in ten volumes of fresh ice-cold 10% Krebs-HEPES buffer, incubated at 37° C., and centrifuged at 15,000 g for 20 minutes. The latter sequence of resuspension, incubation, and centrifugation was repeated. The pellet was frozen under fresh 10% Krebs-HEPES buffer and stored at −40° C. until assay. Upon assay, the pellet was resuspended in the Krebs-HEPES buffer, incubated at 37° C. for five minutes, and centrifuged at 15,000 g for 20 minutes. The final pellet was resuspended in 3.6 ml ice-cold MilliQ water which provided for approximately 200 μg protein per 100 μl aliquot. Competition assays were performed in duplicate in a final volume of 200 μl Krebs-HEPES buffer containing […] Tris buffer (pH 7.5 at 4° C.). […] After a 90 minute incubation at 4° C., reactions were terminated by dilution of the samples with 3 ml of ice-cold Krebs-HEPES buffer followed immediately by filtration through Whatman GF/B glass fiber filters (presoaked in 0.5% polyethyleneimine) using a Brandel Cell Harvester. Filters were rinsed three times with 3 ml of ice-cold Krebs-HEPES buffer, transferred to scintillation vials, and 5 ml scintillation cocktail (Research Products International Corp., Mt. Prospect, Ill.) added. […] Binding parameters were determined using the weighted, least squares non-linear regression.

[4] = molecular target: α4β2* nAChRs (Rattus norvegicus, UniProt P09483+P12390)
Protocol: Whole brain, excluding cortex and cerebellum, was homogenized in 20 ml of ice-cold buffer, containing (in mM): 2 HEPES, 11.8 NaCl, 0.48 KCl, 0.25 CaCl2 and 0.12 MgSO4, pH 7.5. Homogenate was centrifuged (25,000 g, 15 minutes, 4° C.). Pellets were resuspended in 20 ml of buffer and incubated at 37° C., for ten minutes, cooled to 4° C. and centrifuged (25,000 g, 15 minutes, 4° C.). Pellets were resuspended and centrifuged using the same conditions. Final pellets were stored in assay buffer, containing (in mM): 20 HEPES, 118 NaCl, 4.8 KCl, 2.5 CaCl2, and 1.2 MgSO4) pH 7.5 at −70° C. Upon use, final pellets were resuspended in ˜20 ml assay buffer. […] Control was in the absence of analog. […] Incubations proceeded for 60 minutes at room temperature using 96-well plates and were terminated by harvesting on Unifilter-96 GF/B filter plates presoaked in 0.5% polyethylenimine, using a Packard FilterMate harvester.
After washing five times with 350 μl ice-cold assay buffer, filter plates were dried (60 minutes, 49° C.), bottom-sealed, and filled with Packard's MicroScint 20 cocktail (40 μl/well). After 60 minutes, filter plates were top-sealed, and radioactivity determined using a Packard TopCount. Protein concentrations were determined using bovine serum albumin as the standard.
Whole brain was homogenized in 20 ml of ice-cold buffer (in mM: 2 HEPES, 11.8 NaCl, 0.48 KCl, 0.25 CaCl2, and 0.12 MgSO4, pH 7.5). Homogenates were centrifuged (25,000 g, 15 minutes, 4° C.). Pellets were resuspended in 20 ml of buffer and incubated at 37° C., for 10 minutes, cooled to 4° C. and centrifuged (25,000 g, 15 minutes, 4° C.). Pellets were resuspended and centrifuged again using the same conditions. Final pellets were stored at −70° C. in assay buffer (in mM: 20 HEPES, 118 NaCl, 4.8 KCl, 2.5 CaCl2, and 1.2 MgSO4, pH 7.5). Upon use, final pellets were resuspended in ˜20 ml assay buffer. […] Control was in the absence of analog. […] Incubation proceeded for 60 minutes at room temperature using 96-well plates and was terminated by harvesting on Unifilter-96 GF/B filter plates, presoaked in 0.5% polyethylenimine, using a Packard FiterMate harvester. After washing 5× with 350 μl ice-cold assay buffer, filter plates were dried (60 minutes, 49° C.), bottom-sealed, and filled with Packard's MicroScint 20 cocktail (40 μl/well). After 60 minutes, filter plates were top-sealed, and radioactivity determined. Protein concentration was determined using BSA as the standard.

[5] = molecular target: T2, α7-type neuronal nicotinic acetylcholine receptors (Rattus norvegicus, UniProt Q05941); assay: biochemical; conditions: read-out: Ki, [^3H]MLA binding
T2 construct: Rat brain was dissected into the whole brain tissue without cortex, striatum and cerebellum; from tissue; host or cells: rat brain (without cortex, striatum, cerebellum) membranes

[6] = molecular target: T2, α7-type neuronal nicotinic acetylcholine receptors; assay type: binding; conditions: read-out: Ki, [^3H]MLA binding
Protocol: Rat brain was dissected into the whole brain tissue without cortex, striatum and cerebellum and was frozen in liquid nitrogen and stored at −70° C. until use.
The brain tissue was homogenized with a Tekmar Polytron (setting 40) in 20 volumes of ice-cold hypotonic buffer (2 mM HEPES, 14.4 mM NaCl, 0.15 mM KCl, 0.2 mM CaCl2 and 0.1 mM MgSO4, pH=7.5). The homogenate was incubated at 37° C. for ten minutes and centrifuged at 25,000×g for 15 minutes at […] The pellet was washed three times more by resuspension in the 20 volumes of the same buffer and centrifugation at the above parameters. The final pellet was stored at −20° C. under 4.6 ml of the incubation buffer and was suspended just before the incubation with radioligand.
[^3H]MLA (25.4 Ci/mmol) was purchased from Tocris Cookson Ltd., Bristol, U.K. Binding was performed in duplicate, in a final volume of 250 μl of the incubation medium, containing 20 mM HEPES, 144 mM NaCl, 1.5 mM KCl, 2 mM CaCl2, 1 mM MgSO4 and 0.05% BSA, pH=7.5. Reaction was initiated by the addition of 100 μl of membrane suspension to the samples containing a desired concentration of test compounds and […] [^3H] MLA (final concentration) and incubated for 2 hours at room temperature. […] The binding reaction was terminated by dilution of samples with 3 ml of ice-cold incubation buffer followed by immediate filtration through presoaked in 0.5% polyethylenimine glass fiber filters (S&S, grade #32) using a Brandel harvester system. Filters were rinsed three times with 3 ml of ice-cold buffer, transferred to scintillation-vials and 4 ml of scintillation cocktail was added. Protein was measured using the Bradford dye-binding procedure with bovine serum albumin as the standard.

[7] = read-out: Nicotine-evoked [^3H]DA Overflow IC50, Table 6, mean (standard error)
[8] = read-out: Nicotine-evoked [^3H]DA Overflow IC50, Table 5, mean (95% confidence interval)
[9] = rat brain membranes, 2.5 nM [^3H]-MLA
[10] = rat striatal slices, nicotine 10 μM
[11] = rat brain membranes, […] [^3H]-MLA
[12] = rat striatal membranes, 3 nM [^3H]-nicotine
[13] = read-out: Nicotine-evoked [^3H]DA Overflow IC50

T2 sequence (Q05941 23-502): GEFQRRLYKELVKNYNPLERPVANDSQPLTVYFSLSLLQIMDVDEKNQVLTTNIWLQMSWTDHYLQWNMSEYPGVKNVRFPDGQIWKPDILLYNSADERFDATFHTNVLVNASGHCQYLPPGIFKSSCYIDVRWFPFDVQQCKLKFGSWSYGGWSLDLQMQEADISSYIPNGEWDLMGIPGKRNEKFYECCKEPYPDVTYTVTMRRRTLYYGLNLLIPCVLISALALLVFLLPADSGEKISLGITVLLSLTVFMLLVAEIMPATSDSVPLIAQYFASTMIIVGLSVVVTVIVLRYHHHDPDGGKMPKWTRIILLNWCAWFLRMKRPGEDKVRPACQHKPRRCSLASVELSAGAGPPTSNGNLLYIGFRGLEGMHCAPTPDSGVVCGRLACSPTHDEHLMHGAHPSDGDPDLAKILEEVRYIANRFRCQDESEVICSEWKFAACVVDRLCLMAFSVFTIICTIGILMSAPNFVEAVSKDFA
T1 sequence (P09483 31-630): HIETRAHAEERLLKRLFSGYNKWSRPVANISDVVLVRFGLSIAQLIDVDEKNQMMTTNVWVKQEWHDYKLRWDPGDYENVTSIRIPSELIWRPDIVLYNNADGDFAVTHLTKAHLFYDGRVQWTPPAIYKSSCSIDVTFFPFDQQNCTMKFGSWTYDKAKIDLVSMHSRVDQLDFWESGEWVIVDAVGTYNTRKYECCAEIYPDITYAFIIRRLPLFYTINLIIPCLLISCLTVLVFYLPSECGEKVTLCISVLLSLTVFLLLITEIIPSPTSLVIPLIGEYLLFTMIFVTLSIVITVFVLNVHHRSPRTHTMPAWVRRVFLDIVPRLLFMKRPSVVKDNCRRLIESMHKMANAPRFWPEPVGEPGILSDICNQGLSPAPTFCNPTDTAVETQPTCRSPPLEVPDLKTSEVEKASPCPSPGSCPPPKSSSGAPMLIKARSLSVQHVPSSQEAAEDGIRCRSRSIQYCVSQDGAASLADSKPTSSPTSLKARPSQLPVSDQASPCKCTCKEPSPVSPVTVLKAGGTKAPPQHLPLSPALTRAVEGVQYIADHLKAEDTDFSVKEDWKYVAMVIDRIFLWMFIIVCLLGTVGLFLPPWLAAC
T1 sequence (P12390 25-500): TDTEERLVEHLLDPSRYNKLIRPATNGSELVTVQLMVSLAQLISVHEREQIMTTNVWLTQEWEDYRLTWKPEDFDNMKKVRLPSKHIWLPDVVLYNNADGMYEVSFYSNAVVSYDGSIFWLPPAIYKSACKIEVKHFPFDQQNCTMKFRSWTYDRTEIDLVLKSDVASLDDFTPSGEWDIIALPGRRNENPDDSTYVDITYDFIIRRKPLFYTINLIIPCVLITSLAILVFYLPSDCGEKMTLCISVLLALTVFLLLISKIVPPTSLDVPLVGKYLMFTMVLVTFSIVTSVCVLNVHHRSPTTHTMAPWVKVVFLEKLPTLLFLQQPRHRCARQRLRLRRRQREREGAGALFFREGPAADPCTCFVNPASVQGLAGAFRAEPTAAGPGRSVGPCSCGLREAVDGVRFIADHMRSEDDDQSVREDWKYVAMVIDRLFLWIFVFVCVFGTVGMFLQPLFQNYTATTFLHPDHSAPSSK
Sequence of α4β2* nAChRs (P09483 31-630): as the sequence (P09483 31-630) above
Sequence of α4β2* nAChRs (P12390 25-500): as the sequence (P12390 25-500) above

## CCCCCCCCCCCC[n+]1ccc2c(c1)[C@@H]1[C@H](CC2)CCN1C [ACDD]
[1]; [7]
  IC50: 0.22 µM

## CCCCCCCCC[n+]1cccc2c1CCC1CCN(C)C21 (centres unmarked) [BCN]
[1]; [7]
  IC50: 0.31 µM

## CCCCCCCCCCC[n+]1cccc2c1CCC1CCN(C)C21 (centres unmarked) [BCU]
[1]; [7]
  IC50: 0.04 µM

## CO[C@H]1CC=C2CCN3CCC4=C(CC(=O)OC4)[C@]23C1 [DHβE, dihydro-β-erthyroidine, reference compound]
[2]
  IC50: 1 µM
[3]
  Ki: 0.15 µM

## CCCCCCCCCCCC[n+]1cccc(C2CCCN2C)c1 (centres unmarked) [NDDNI]
[4]
  Ki: 0.14 µM
[1]
  potency relative to DHβE as inhibitor of nAChRs mediating nicotine-evoked dopamine release: at least two orders of magnitude more potent
[1]; read-out: IC50, inhibition of nicotine-evoked [^3H]dopamine release/overflow
  IC50: 0.009 µM

## CCCCCCCCCCCC[n+]1ccccc1 [NDDPI]
[1]; [8]
  IC50: 0.26 µM

## CCCCCCCCCCCCCCCCCCCC[n+]1ccccc1 [NEcPB]
[1]; [8]
  IC50: 0.12 µM

## CCCCCCCC[n+]1cccc(C)c1 [NOPiI]
[1]; read-out: Nicotine-evoked [^3H]DA Overflow IC50, Table 9, mean (standard error)
  IC50: 1 µM

## CCCCCCCCCCCCCCC[n+]1ccccc1 [NPDPB]
[4]; read-out: [^3H]Nicotine Binding Ki, Table 5, mean (95% confidence interval)
  Ki: 38 µM
[1]; [8]
  IC50: 0.32 µM

## c1ccc2c[n+](CCCCCCCCCC[n+]3ccc4ccccc4c3)ccc2c1 [bIQDI, N,N′-Decane-1,10-diyl-bis-isoquinolinium Diiodide]
[5]; [9]
  Ki: 5.5 µM
[2]; [10]
  IC50: 2.62 µM

## c1ccc2c[n+](CCCCCC[n+]3ccc4ccccc4c3)ccc2c1 [bIQHxI, N,N′-Hexane-1,6-diyl-bis-isoquinolinium Diiodide]
[6]; [11]
  Ki: 16 µM
[2]; [10]
  IC50: > 100 µM
[3]; [12]
  Ki: 17.9 µM

## c1ccc2c[n+](CCCCCCCCC[n+]3ccc4ccccc4c3)ccc2c1 [bIQNB, N,N′-Nonane-1,9-diyl-bis-isoquinolinium Dibromide]
[5]; [9]
  Ki: 13.1 µM
[2]; [10]
  IC50: 1.61 µM
[3]; [12]
  Ki: > 100 µM

## c1ccc2c[n+](CCCCCCCC[n+]3ccc4ccccc4c3)ccc2c1 [bIQOI, N,N′-Octane-1,8-diyl-bis-isoquinolinium Diiodide]
[5]; [9]
  Ki: 8.55 µM
[2]; [10]
  IC50: 51.9 µM
[3]; [12]
  Ki: > 100 µM

## c1ccc2c[n+](CCCCCCCCCCC[n+]3ccc4ccccc4c3)ccc2c1 [bIQUB, N,N′-Undecane-1,11-diyl-bis-isoquinolinium Dibromide]
[5]; [9]
  Ki: 24.1 µM
[2]; [10]
  IC50: 0.49 µM
[3]; [12]
  Ki: 9.02 µM

## CN1CCCC1c1ccc[n+](CCCCCCCCCC[n+]2cccc(C3CCCN3C)c2)c1 (centres unmarked) [bNDI, N,N′-Decane-1,10-diyl-bis-nicotinium Diiodide]
[5]; [9]
  Ki: > 100 µM
[2]; [10]
  IC50: > 100 µM
[3]; [12]
  Ki: 0.28 µM

## CN1CCC[C@H]1c1ccc[n+](CCCCCC[n+]2cccc([C@@H]3CCCN3C)c2)c1 [bNHxI, N,N′-Hexane-1,6-diyl-bis-nicotinium Diiodide]
[2]; [10]
  IC50: > 100 µM

## CN1CCC[C@H]1c1ccc[n+](CCCCCCCCC[n+]2cccc([C@@H]3CCCN3C)c2)c1 [bNNB, N,N′-Nonane-1,9-diyl-bis-nicotinium Dibromide]
[2]; [10]
  IC50: > 100 µM
[3]; [12]
  Ki: 4.31 µM

## CN1CCC[C@H]1c1ccc[n+](CCCCCCCC[n+]2cccc([C@@H]3CCCN3C)c2)c1 [bNOI, N,N′-Octane-1,8-diyl-bis-nicotinium Diiodide]
[2]; [10]
  IC50: 19.1 µM
[3]; [12]
  Ki: 1.5 µM

## CN1CCC[C@H]1c1ccc[n+](CCCCCCCCCCC[n+]2cccc([C@@H]3CCCN3C)c2)c1 [bNUB, N,N′-Undecane-1,11-diyl-bis-nicotinium Dibromide]
[2]; [10]
  IC50: > 100 µM
[3]; [12]
  Ki: 0.37 µM

## c1cc[n+](CCCCCCCCCC[n+]2ccccc2)cc1 [bPDI, N,N′-Decane-1,10-diyl-bis-pyridinium Diiodide]
[2]; [10]
  IC50: > 1 µM
[3]; [12]
  Ki: 18.6 µM

## c1cc[n+](CCCCCC[n+]2ccccc2)cc1 [bPHxI, N,N′-Hexane-1,6-diyl-bis-pyridinium Diiodide]
[2]; [10]
  IC50: > 100 µM
[3]; [12]
  Ki: 97.8 µM

## c1cc[n+](CCCCCCCCC[n+]2ccccc2)cc1 [bPNB, N,N′-Nonane-1,9-diyl-bis-pyridinium Dibromide]
[2]; [10]
  IC50: > 100 µM
[3]; [12]
  Ki: 24.1 µM

## c1cc[n+](CCCCCCCC[n+]2ccccc2)cc1 [bPOI, N,N′-Octane-1,8-diyl-bis-pyridinium Diiodide]
[2]; [10]
  IC50: > 1 µM
[3]; [12]
  Ki: 33.9 µM

## c1cc[n+](CCCCC[n+]2ccccc2)cc1 [bPPeI, N,N′-Pentane-1,5-diyl-bis-pyridinium Diiodide]
[2]; [10]
  IC50: > 100 µM
[3]; [12]
  Ki: > 100 µM

## c1cc[n+](CCCCCCCCCCC[n+]2ccccc2)cc1 [bPUB, N,N′-Undecane-1,11′-diyl-bis-pyridinium Dibromide]
[5]
  Ki: 50.2 µM
[2]; [10]
  IC50: > 100 µM
[3]; [12]
  Ki: 14.4 µM

## c1ccc2c(c1)ccc[n+]2CCCCCCCCCC[n+]1cccc2ccccc21 [bQDI, N,N′-Decane-1,10-diyl-bis-quinolinium Diiodide]
[5]; [9]
  Ki: 7.32 µM
[2]; [10]
  IC50: 8.99 µM

## c1ccc2c(c1)ccc[n+]2CCCCCC[n+]1cccc2ccccc21 [bQHxI, N,N′-Hexane-1,6-diyl-bis-quinolinium Diiodide]
[6]; [11]
  Ki: 13.3 µM
[2]; [10]
  IC50: > 100 µM
[3]; [12]
  Ki: > 100 µM

## c1ccc2c(c1)ccc[n+]2CCCCCCCCC[n+]1cccc2ccccc21 [bQNB, N,N′-Nonane-1,9-diyl-bis-quinolinium Dibromide]
[5]; [9]
  Ki: 3.4 µM
[2]; [10]
  IC50: 17.3 µM
[3]; [12]
  Ki: 20.1 µM

## c1ccc2c(c1)ccc[n+]2CCCCCCCC[n+]1cccc2ccccc21 [bQOI, N,N′-Octane-1,8-diyl-bis-quinolinium Diiodide]
[5]; [9]
  Ki: 2.01 µM
[2]; [10]
  IC50: 10.7 µM

## c1ccc2c(c1)ccc[n+]2CCCCCCCCCCC[n+]1cccc2ccccc21 [bQUB, N,N′-Undecane-1,11-diyl-bis-quinolinium Dibromide]
[5]; [9]
  Ki: 2.44 µM
[2]; [10]
  IC50: 12 µM
[3]; [12]
  Ki: 38.3 µM

## N,N′-Decane-1,10-diyl-bis-picolinium Diiodide [bPiDI]
[6]
  Ki: > 100 µM
[1]; [13]
  IC50: 0.03 µM
[2]
  IC50: 0.03 µM
[3]
  Ki: > 100 µM

## N,N′-Undecane-1,11-diyl-bis-picolinium Dibromide [bPiUB]
[6]
  Ki: > 100 µM
[1]; [13]
  IC50: 1.61 µM
[2]
  IC50: 1.61 µM

## α-Bungarotoxin [reference compound]
[6]
  Ki: 0.0286 ± 0.0054 µM
